# In article PMC4717575, “Characterization of a cold-active and salt tolerant esterase identified by functional screening of Arctic metagenomic libraries” (BMC Biochemistry, 2016):
# Test system: T1, Lip3
# T1 construct: catalytic triad Ser150, Asp207, His267; primers encode N-terminal MNNYIID and C-terminal CLKSLL before the His tag
# Assay: p-nitrophenol release at […] nm, Lineweaver-Burk
# Type: biochemical, uncultured bacterium
# Details: 0.1 M Tris-HCl pH 8.0, 35 °C, 3 % acetonitrile
row,Compound,K M (M.10^-3)
1,CCCCC(=O)Oc1ccc([N+](=O)[O-])cc1 [pNP-pentanoate],1.52 ± 0.20 M∙10^−3
2,CCCCCCCCCC(=O)Oc1ccc([N+](=O)[O-])cc1 [pNP-decanoate],1.03 ± 0.12 M∙10^−3
3,CCCC(=O)Oc1ccc([N+](=O)[O-])cc1 [pNP-butanoate],1.05 ± 0.16 M∙10^−3

# Further lines, results first:
row,K M (M.10^-3),Compound
1,2.38 ± 0.56 M∙10^−3,CC(=O)Oc1ccc([N+](=O)[O-])cc1 [pNP-acetate]
2,0.36 ± 0.04 M∙10^−3,CCCCCCCC(=O)Oc1ccc([N+](=O)[O-])cc1 [pNP-octanoate]
